Assay results taken from paper PMC9919861, “Homoleptic Complexes of Heterocyclic Curcuminoids with Mg(II) and Cu(II): First Conformationally Heteroleptic Case, Crystal Structures, and Biological Properties” (Molecules, 2023).

Legend:
[1] = system: SKLU-1 (human lung adenocarcinoma); experiment: Cytotoxicity, sulforhodamine B (SRB) microculture assay; assay type: cell-based; settings: Homo sapiens, SK-LU-1, 25 μM, read-out: % of Inhibition (cytotoxic screening)
Procedure: (§1) The cytotoxicity of all compounds was tested against six cancer cell lines: U251 (human glioblastoma cell line), PC-3 (human prostate adenocarcinoma), K562 (human chronic myelogenous leukemia), HCT-15 (human colon adenocarcinoma), MCF-7 (human mammary adenocarcinoma), and SKLU-1 (human lung adenocarcinoma). Cell lines were supplied by the U.S. National Cancer Institute (NCI). The cell lines were cultured in an RPMI-1640 medium supplemented with 10% fetal bovine serum, […] L-glutamine, 10,000 units/mL penicillin G sodium, 10,000 µg/mL streptomycin sulfate, 25 µg/mL amphotericin B (Invitrogen/Gibco™, Thermo Fisher Scientific, Waltham, MA, USA), and 1% non-essential amino acids (Gibco). They were maintained at 37 °C in a humidified atmosphere with 5% CO2. […] The human tumor cytotoxicity was determined using the protein-binding dye sulforhodamine B (SRB) in a microculture assay to measure cell growth, as described in the protocols established by the NCI [39, 40, 41].

[2] = system: PC-3 (human prostate adenocarcinoma); experiment: as above; assay type: cell-based; settings: Homo sapiens, 25 μM, read-out: % of Inhibition (cytotoxic screening)
Procedure: as §1

[3] = system: MCF-7 (human mammary adenocarcinoma); experiment: as above; assay type: cell-based; settings: Homo sapiens, MCF7, 25 μM, read-out: % of Inhibition (cytotoxic screening)
Procedure: as §1

[4] = system: U251 (human glioblastoma cell line); experiment: as above; assay type: cell-based; settings: Homo sapiens, U-251, 25 μM, read-out: % of Inhibition (cytotoxic screening)
Procedure: as §1

[5] = system: HCT-15 (human colon adenocarcinoma); experiment: as above; assay type: cell-based; settings: Homo sapiens, 25 μM, read-out: % of Inhibition (cytotoxic screening)
Procedure: as §1

[6] = system: K562 (human chronic myelogenous leukemia); experiment: as above; assay type: cell-based; settings: Homo sapiens, 25 μM, read-out: % of Inhibition (cytotoxic screening)
Procedure: as §1

[7] = Cytotoxicity towards healthy cell line; assay type: cell-based, monkey; settings: monkey, COS-7 kidney cells; COS7; 25 μM; read-out: % of Inhibition (cytotoxic screening)
[8] = system: lipid peroxidation in rat brain homogenate; experiment: Inhibition of lipid peroxidation (TBARS) in rat brain homogenate, FeSO4-induced; assay type: biochemical
Procedure: Adult male Wistar rats (200–250 g) were provided by the Instituto de Fisiología Celular, Universidad Nacional Autónoma de México (UNAM). The procedures and care of animals were conducted in conformity with the Mexican Official Norm for Animal Care and Handling NOM-062-ZOO-1999. They were maintained at 23 ± 2 °C on a 12/12 h light-dark cycle with ad libitum access to food and water.
Animal sacrifice was carried out avoiding unnecessary pain. The rats were sacrificed with CO2. The cerebral tissue (whole brain) was rapidly dissected and homogenized in phosphate-buffered saline (PBS) solution (0.2 g of KCl, 0.2 g of KH2PO4, 8 g of NaCl, and 2.16 g of NaHPO4.7H2O/L, pH adjusted to 7.4) as described elsewhere to produce a 1/10 (w/v) homogenate. The homogenate was centrifuged at 800 rcf (relative centrifugal field) for 10 min. The supernatant protein content was measured using Folin and Ciocalteu’s phenol reagent and adjusted with PBS at 2.666 mg of protein/mL.
As an index of lipid peroxidation, TBARS levels were measured using rat brain homogenates according to the method described by Ng and co-workers, with some modifications. A supernatant (375 µL) was added with 50 µL of 20 µM EDTA and 25 µL of each sample concentration dissolved in DMSO (25 µL of DMSO for the control group) and incubated at 37 °C for 30 min. The lipid peroxidation was started adding 50 µL of freshly prepared 100 µM FeSO4 solution (final concentration 10 µM) and incubated at 37 °C for 1h. The TBARS measurements were obtained as described by Ohkawa and co-workers, with some modifications. To each tube 500 µL of TBA reagent (0.5% 2-thiobarbituric acid in 0.05 N NaOH and 30% trichloroacetic acid, in 1:1 ratio) was added and the final suspension was cooled on ice for 10 min, centrifuged at 13,400 rcf for 5 min and heated at 80 °C in a water bath for 30 min. After cooling at room temperature, the absorbance of 200 µL of supernatant was measured at λ = 540 nm in a Microplate Reader Synergy/HT BIOTEK Instrument, Inc., Winooski, VT, USA. The concentration of TBARS was calculated by interpolation on a standard curve of tetra-methoxypropane (TMP) as a precursor of MDA [38]. Results are expressed as n moles of TBARS per mg of protein. The inhibition ratio (IR [%]) was calculated using the formula IR = (C − E) × 100/C, where C is the control absorbance and E is the sample absorbance. Butylated hydroxytoluene (BHT) and α tocopherol were used as positive standards. All data are presented as mean ± standard error (SEM). The data were analyzed by one-way analysis of variance (ANOVA) followed by Dunnett’s test for comparison against a control. Values of p ≤ 0.05 (*) and p ≤ 0.01 (**) were considered statistically significant.

Question: With `O=C(/C=C(O)/C=C/c1cccs1)/C=C/c1cccs1` [ThiopheneCurc, Thiophenecurcumin] as the compound, how does the inhibition at 25 µM [1] read?
Answer: 0%

Question: And the inhibition at 25 µM [2]?
Answer: 14.8%

Question: What about the inhibition at 25 µM [3] of the same compound?
Answer: 13.4%

Question: What about the inhibition at 25 µM [4] of the same compound?
Answer: 0%

Question: What about the inhibition at 25 µM [5] of the same compound?
Answer: 0%

Question: What about the inhibition at 25 µM [6] of the same compound?
Answer: 4.4%

Question: And the inhibition at 25 µM [7]?
Answer: 0%

Question: And the “Inhibition (%) of lipid peroxidation” value ([8]; 10 μM, mean ± SEM, n = 3)?
Answer: 17.68 ± 0.97%

Question: And the TBARS ([8]; 10 μM, mean ± SEM, n = 3)?
Answer: 4.398 ± 0.177 nmol/mg prot.

Question: And the “Inhibition (%) of lipid peroxidation” value ([8]; 17.78 μM, mean ± SEM, n = 3)?
Answer: 40.94 ± 0.36%

Question: What about the TBARS ([8]; 17.78 μM, mean ± SEM, n = 3) of the same compound?
Answer: 3.157 ± 0.139 nmol/mg prot.

Question: And the “Inhibition (%) of lipid peroxidation” value ([8]; 31.62 μM, mean ± SEM, n = 3)?
Answer: 61.81 ± 1.08%

Question: What about the TBARS ([8]; 31.62 μM, mean ± SEM, n = 3) of the same compound?
Answer: 2.042 ± 0.116 nmol/mg prot.

Question: And the “Inhibition (%) of lipid peroxidation” value ([8]; 56.23 μM, mean ± SEM, n = 3)?
Answer: 71.25 ± 1.79%

Question: What about the TBARS ([8]; 56.23 μM, mean ± SEM, n = 3) of the same compound?
Answer: 1.528 ± 0.035 nmol/mg prot.

Question: What about the “Inhibition (%) of lipid peroxidation” value ([8]; 100 μM, mean ± SEM, n = 3) of the same compound?
Answer: 73.06 ± 3.06%

Question: And the TBARS ([8]; 100 μM, mean ± SEM, n = 3)?
Answer: 1.425 ± 0.094 nmol/mg prot.

Question: And the “Inhibition (%) of lipid peroxidation” value ([8]; 177.83 μM, mean ± SEM, n = 3)?
Answer: 66.63 ± 3.83%

Question: And the TBARS ([8]; 177.83 μM, mean ± SEM, n = 3)?
Answer: 1.766 ± 0.119 nmol/mg prot.

Question: What about the “% of Inhibition (lipoperoxidation screening)” value (from here on “% of Inhibition”) ([8]; concentration 1 (unit not given)) of the same compound?
Answer: 0.23%

Question: And the “% of Inhibition” value ([8]; concentration 10 (unit not given))?
Answer: 25.43%

Question: And the “% of Inhibition” value ([8]; concentration 100 (unit not given))?
Answer: 51.90%

Question: And the IC50 ([8]; rat brain homogenate, TBARS, mean ± SEM, n = 3)?
Answer: 22.02 ± 0.15 µM
